Assay results as given in patent US20230373934A1, “ANDROGEN RECEPTOR MODULATORS AND METHODS FOR THEIR USE” (ESSA Pharma, Inc., priority 2022, published 2023).
pIC50: −log10 of the molar value.

Each molecule was assayed against T1, androgen receptor (AR) (Homo sapiens, UniProt P10275, T878A) (assay: Androgen-induced PSA-luciferase assay, Luciferase Assay A (LNCaP transiently transfected with PSA (6.1 kb)-luciferase reporter)). Details: LNCaP cells, 1 h pretreatment, R1881 (1 nM) 24 h, read-out: PSA-Luc IC50 Range.
T1 construct: endogenous in cells; host or cells: LNCaP
T1 sequence (P10275 1-920 T878A): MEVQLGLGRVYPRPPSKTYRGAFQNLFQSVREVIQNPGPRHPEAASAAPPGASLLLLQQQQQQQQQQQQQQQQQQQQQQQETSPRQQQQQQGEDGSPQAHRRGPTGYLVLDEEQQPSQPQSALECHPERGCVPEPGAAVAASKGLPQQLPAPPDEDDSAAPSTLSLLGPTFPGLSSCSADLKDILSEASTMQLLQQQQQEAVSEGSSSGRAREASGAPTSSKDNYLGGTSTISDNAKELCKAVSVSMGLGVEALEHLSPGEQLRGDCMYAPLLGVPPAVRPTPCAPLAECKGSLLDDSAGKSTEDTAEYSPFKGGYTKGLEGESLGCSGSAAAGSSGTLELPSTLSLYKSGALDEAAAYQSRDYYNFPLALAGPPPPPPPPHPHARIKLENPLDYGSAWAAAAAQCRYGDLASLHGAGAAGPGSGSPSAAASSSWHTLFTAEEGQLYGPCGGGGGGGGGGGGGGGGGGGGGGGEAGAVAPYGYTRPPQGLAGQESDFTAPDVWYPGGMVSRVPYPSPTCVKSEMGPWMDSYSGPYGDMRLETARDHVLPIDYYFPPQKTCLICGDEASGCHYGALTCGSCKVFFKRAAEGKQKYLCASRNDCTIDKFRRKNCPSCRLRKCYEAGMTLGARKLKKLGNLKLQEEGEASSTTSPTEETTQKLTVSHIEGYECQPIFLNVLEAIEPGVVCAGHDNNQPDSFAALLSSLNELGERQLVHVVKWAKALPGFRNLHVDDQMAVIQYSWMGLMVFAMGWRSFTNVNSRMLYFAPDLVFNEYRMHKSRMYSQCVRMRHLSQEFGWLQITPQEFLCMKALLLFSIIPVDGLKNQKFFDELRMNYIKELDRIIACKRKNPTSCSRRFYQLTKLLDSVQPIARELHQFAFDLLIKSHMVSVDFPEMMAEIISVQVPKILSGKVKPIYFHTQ
Assay type: cell-based
Protocol: The PSA (6.1 kb)-luciferase reporter contains functional AREs (androgen response elements) to which AR binds in response to androgen to induce luciferase activity. LNCaP cells were transiently transfected with the PSA (6.1 kb)-luciferase reporter for 24 h, and then pretreated with vehicle (DMSO) or indicated concentration of representative compounds for one hour prior to the addition of synthetic androgen, R1881 (1 nM). After 24 h of incubation with R1881, the cells were harvested, and relative luciferase activities were determined (FIG. 1). To determine the IC50, treatments were normalized to vehicle control activity induced by R1881 (Table 2).
Luciferase Assay A: Cells were lysed using Passive Lysis Buffer (Promega) and then collected into V-bottom 96-well tissue culture plates. Lysates were centrifuged at 4° C. for 5 minutes at 3000 rpm. To measure luminescence of LNCaP cell lysates the Firefly Luciferase Assay System (Promega) was employed, according to manufacturer's protocol. Relative luminescence units (RLU) in cell lysates were detected for 10 seconds using Promega GloMax-Multi Detection Luminometer (Promega). Values were normalized to protein content. GraphPad Prism graphing software was used to calculate IC50 values. Luciferase Assay A was run for all compounds in Table 2 unless otherwise noted below.
Statistical analyses were performed using GraphPad Prism (Version 6.01 for Windows; La Jolla, CA, USA). Comparisons between treatment and control groups were compared using Two-Way ANOVA with post-hoc Dunnett's and Tukey's tests. Differences were considered statistically significant at P values less than 0.05.

Compound | pIC50
CC(C)(c1ccc(OC2CC3(C2)CN(S(C)(=O)=O)C3)cc1)c1cc(Cl)c(OC2CC2)c(C#N)c1 [Compound A141] | 5.70 to 6.30
CC(C)(c1ccc(OCc2ccnc(NS(C)(=O)=O)n2)cc1)c1cc(Cl)c(N2CC3CC(C2)O3)c(C#N)c1 [Compound A126] | < 5.70
COC1CN(c2c(Cl)cc(C(C)(C)c3ccc(OCc4ccnc(NS(C)(=O)=O)n4)cc3)cc2C#N)C1 [Compound A167] | < 5.70
CC(C)(c1ccc(N2CCOC(CNS(C)(=O)=O)C2)cc1)c1cc(Cl)c(OCCCl)c(C#N)c1 (stereo not drawn) [Compound A14] | 5.70 to 6.30
CC(C)(c1ccc(OC[C@]2(C)C[C@H](NS(C)(=O)=O)C2)cc1)c1cc(Cl)c(OCCCl)c(C#N)c1 [Compound A51] | < 5.70
CN(c1ccc(OCc2ccnc(NS(C)(=O)=O)n2)cc1)c1cc(C#N)c(OCCCl)cn1 [Compound A171] | < 5.70
CC(C)(c1ccc(-c2cnc(CNS(C)(=O)=O)nc2)cc1)c1cc(Cl)c(OCCCl)c(C#N)c1 [Compound A4] | 5.70 to 6.30
CS(=O)(=O)NCC1CN(c2ncc(-c3ccc(Oc4cc(Cl)c(OCCCl)c(C#N)c4)cc3)cn2)C1 [Compound A96] | > 6.30
CS(=O)(=O)NC1CCN(Cc2ccc(Oc3cc(Cl)c(OCCCl)c(C#N)c3)cc2)CC1(F)F (stereo not drawn) [Compound A35] | < 5.70
CS(=O)(=O)Nc1nccc(COc2ccc(Cc3cc(Cl)c(OCCCl)c(C#N)c3)cc2)n1 [Compound A185] | < 5.70
CC(C)(c1ccc(OCc2cc(N3CCNCC3)nc(NS(C)(=O)=O)n2)cc1)c1cc(Cl)c(OCCCl)c(C#N)c1 [Compound A116] | < 5.70
CC(C)(c1ccc(OCc2ccnc(NS(C)(=O)=O)n2)cc1)c1cc(Cl)c(OC2CC2)c(C#N)c1 [Compound A62] | 5.70 to 6.30
CC(C)(c1ccc(N2CCN(C3CC(NS(C)(=O)=O)C3)CC2)cc1)c1cc(Cl)c(OCCCl)c(C#N)c1 (stereo not drawn) [Compound A48] | < 5.70
CC(C)(c1ccc(OC[C@H]2CC[C@H](NS(C)(=O)=O)CC2)cc1)c1cc(Cl)c(OCCCl)c(C#N)c1 [Compound A63] | 5.70 to 6.30
CS(=O)(=O)Nc1cnc2cc(-c3ccc(Oc4cc(F)c(OC5CC5)c(C#N)c4)cc3)ccc2n1 [Compound A154] | 5.70 to 6.30
CC(C)(c1ccc(OCc2ccc(F)c(NS(C)(=O)=O)n2)cc1)c1cc(Cl)c(OCCCl)c(C#N)c1 [Compound A125] | 5.70 to 6.30
CN(c1nccc(Oc2ccc(C(C)(C)c3cc(Cl)c(OCCCl)c(C#N)c3)cc2)n1)S(C)(=O)=O [Compound A135] | 5.70 to 6.30
CC(C)(c1ccc(OCc2ccc(F)c(NS(C)(=O)=O)c2)cc1)c1cc(Cl)c(OCCCl)c(C#N)c1 [Compound A131] | 5.70 to 6.30
CS(=O)(=O)N1CCc2cc(-c3ccc(Oc4cc(Cl)c(OCCCl)c(C#N)c4)cc3)ccc2C1 [Compound A120] | < 5.70
CC(C)(c1ccc(OCc2cc(C3CCNCC3)nc(NS(C)(=O)=O)n2)cc1)c1cc(Cl)c(OCCCl)c(C#N)c1 [Compound A114] | < 5.70
CC(C)(c1ccc(OCc2ccnc(NS(C)(=O)=O)n2)cc1)c1cc(Cl)c(CN2CC(F)(F)C2)c(Cl)c1 [Compound A166] | 5.70 to 6.30
CC(C)(c1ccc(OCc2ccnc(NS(C)(=O)=O)n2)cc1)c1cc(Cl)c(OCCN2CCNCC2)c(C#N)c1 [Compound A184] | < 5.70
CC(C)(c1ccc(-c2ncc(CNS(C)(=O)=O)cn2)cc1)c1cc(Cl)c(OCCCl)c(C#N)c1 [Compound A5] | 5.70 to 6.30
CC(C)(c1ccc(OCc2ccnc(NS(C)(=O)=O)n2)cc1)c1cc(Cl)c(OCC2CC2)c(C#N)c1 [Compound A147] | 5.70 to 6.30
CC(C)(c1ccc(OCC2CC3(C2)CN(S(C)(=O)=O)C3)cc1)c1cc(Cl)c(OCCCl)c(C#N)c1 [Compound A71] | 5.70 to 6.30
CS(=O)(=O)Nc1cnc2cc(-c3ccc(Oc4cc(Cl)c(OCCCl)c(C#N)c4)cn3)ccc2n1 [Compound A23] | < 5.70
CC(C)(c1ccc(OCc2ccnc(NS(=O)(=O)c3ccccn3)n2)cc1)c1cc(Cl)c(OCCCl)c(C#N)c1 [Compound A110] | 5.70 to 6.30
